Measurements from ChEMBL document CHEMBL3397033, “Bioactive benzofuran derivatives: moracins A-Z in medicinal chemistry” (Eur J Med Chem, 2015).
Converted amounts (≈) assume the structure as drawn.

Tests used:
Staphylococcus aureus [1] = experiment: Antimicrobial activity against methicillin-sensitive Staphylococcus aureus; type: functional
Staphylococcus aureus [2] = experiment: Antimicrobial activity against methicillin-resistant Staphylococcus aureus; type: functional
Micrococcus luteus = experiment: Antimicrobial activity against Micrococcus luteus; type: functional
Bacillus subtilis = experiment: Antimicrobial activity against Bacillus subtilis; type: functional
Escherichia coli [3] = experiment: Antimicrobial activity against Escherichia coli; type: functional
Klebsiella pneumoniae [4] = experiment: Antimicrobial activity against Klebsiella pneumoniae; type: functional
Pseudomonas aeruginosa [5] = experiment: Antimicrobial activity against Pseudomonas aeruginosa; type: functional
Citrobacter freundii [6] = experiment: Antimicrobial activity against Citrobacter freundii by liquid microdilution assay; type: functional
Escherichia coli [7] = experiment: Antimicrobial activity against Escherichia coli by liquid microdilution assay; type: functional
Shigella dysenteriae [8] = experiment: Antimicrobial activity against Shigella dysenteriae by liquid microdilution assay; type: functional
Pseudomonas aeruginosa [9] = experiment: Antimicrobial activity against Pseudomonas aeruginosa by liquid microdilution assay; type: functional
Klebsiella pneumoniae [10] = experiment: Antimicrobial activity against Klebsiella pneumoniae by liquid microdilution assay; type: functional
Salmonella typhi [11] = experiment: Antimicrobial activity against Salmonella typhi by liquid microdilution assay; type: functional, Salmonella enterica subsp. enterica serovar Typhi; details: Salmonella enterica
Enterococcus faecalis [12] = experiment: Antimicrobial activity against Streptococcus faecalis by liquid microdilution assay; type: functional
Microsporum audouinii [13] = experiment: Antimicrobial activity against Microsporum audouinii by liquid microdilution assay; type: functional
Escherichia coli [14] = experiment: Microbicidal activity against Escherichia coli by liquid microdilution assay; type: functional
Shigella dysenteriae [15] = experiment: Microbicidal activity against Shigella dysenteriae by liquid microdilution assay; type: functional
Pseudomonas aeruginosa [16] = experiment: Microbicidal activity against Pseudomonas aeruginosa by liquid microdilution assay; type: functional
Klebsiella pneumoniae [17] = experiment: Microbicidal activity against Klebsiella pneumoniae by liquid microdilution assay; type: functional
Salmonella typhi [18] = experiment: Microbicidal activity against Salmonella typhi by liquid microdilution assay; type: functional, Salmonella enterica subsp. enterica serovar Typhi; details: Salmonella enterica
Enterococcus faecalis [19] = experiment: Microbicidal activity against Streptococcus faecalis by liquid microdilution assay; type: functional
Microsporum audouinii [20] = experiment: Microbicidal activity against Microsporum audouinii by liquid microdilution assay; type: functional
[21] = target: T1, Hypoxia-inducible factor 1-alpha (Homo sapiens, UniProt Q16665); experiment: Inhibition of HIF-1alpha in human Hep3B cells cotransfected with pGL3-HRE-luciferase plasmid at > 50 uM after 24 hrs by dual-luciferase reporter assay; type: cell-based; details: hep 3b2
T1 sequence (Q16665 whole entry): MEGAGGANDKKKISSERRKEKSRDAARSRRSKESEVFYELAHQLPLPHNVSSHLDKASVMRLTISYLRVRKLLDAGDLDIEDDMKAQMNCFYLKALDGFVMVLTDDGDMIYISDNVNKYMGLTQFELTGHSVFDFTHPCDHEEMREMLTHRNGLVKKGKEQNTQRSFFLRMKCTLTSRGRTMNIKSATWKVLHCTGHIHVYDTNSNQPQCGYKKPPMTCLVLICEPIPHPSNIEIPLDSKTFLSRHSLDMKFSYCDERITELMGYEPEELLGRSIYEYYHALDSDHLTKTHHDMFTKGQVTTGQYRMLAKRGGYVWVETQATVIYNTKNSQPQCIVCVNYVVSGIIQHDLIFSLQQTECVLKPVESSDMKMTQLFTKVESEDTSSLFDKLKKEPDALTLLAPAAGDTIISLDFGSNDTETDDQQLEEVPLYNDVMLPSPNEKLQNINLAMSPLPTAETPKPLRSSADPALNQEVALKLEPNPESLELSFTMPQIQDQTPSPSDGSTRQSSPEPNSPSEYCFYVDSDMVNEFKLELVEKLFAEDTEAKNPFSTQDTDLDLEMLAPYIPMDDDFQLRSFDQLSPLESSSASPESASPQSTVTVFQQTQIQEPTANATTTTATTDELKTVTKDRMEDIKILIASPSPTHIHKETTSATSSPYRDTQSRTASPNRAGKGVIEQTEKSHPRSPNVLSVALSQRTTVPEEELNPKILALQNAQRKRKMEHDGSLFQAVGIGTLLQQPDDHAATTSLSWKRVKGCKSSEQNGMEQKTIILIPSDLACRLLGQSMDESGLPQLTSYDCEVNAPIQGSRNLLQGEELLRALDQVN

[22] = target: T1, Hypoxia-inducible factor 1-alpha; experiment: Inhibition of HIF-1alpha in human Hep3B cells assessed as decrease in VEGF level at > 50 uM after 20 hrs by ELISA; type: cell-based; details: hep 3b2
[23] = Cytotoxicity against human Hep3B cells assessed as cell viability after 24 hrs by MTT assay; type: cell-based, Hep 3B2
Mus musculus [24] = experiment: Hypoglycemic activity in alloxan-induced diabetic mouse assessed as fasting blood glucose level at 50 mg/kg; type: functional
Mus musculus [25] = experiment: Hypoglycemic activity in alloxan-induced diabetic mouse assessed as fasting blood glucose level at 10 mg/kg; type: functional
[26] = Antiinflammatory activity against rat PMN assessed as inhibition of PAF-induced beta-glucuronidase release relative to control; type: functional
[27] = target: Enoyl-[acyl-carrier-protein] reductase [NADPH] FabI (Staphylococcus aureus, UniProt Q6GI75); experiment: Inhibition of Staphylococcus aureus FabI-mediated trans-2-octenoyl N-acetylcysteamine (t-o-NAC thioester) substrate reduction assessed as decrease in NADPH […]
Chain of Enoyl-[acyl-carrier-protein] reductase [NADPH] FabI (Q6GI75 whole entry): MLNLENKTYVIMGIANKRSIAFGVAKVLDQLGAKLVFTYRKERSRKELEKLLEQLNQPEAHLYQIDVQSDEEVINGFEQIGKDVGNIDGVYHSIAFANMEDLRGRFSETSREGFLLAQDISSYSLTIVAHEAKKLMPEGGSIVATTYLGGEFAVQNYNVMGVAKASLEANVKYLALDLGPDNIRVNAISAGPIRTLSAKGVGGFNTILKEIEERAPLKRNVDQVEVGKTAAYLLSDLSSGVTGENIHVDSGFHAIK

Staphylococcus aureus [28] = experiment: Antimicrobial activity against Staphylococcus aureus RN4220 assessed as inhibition of cell growth by broth microdilution method; type: functional
Staphylococcus aureus [29] = experiment: Antimicrobial activity against methicillin-resistant Staphylococcus aureus CCARM3167 assessed as inhibition of cell growth by broth microdilution method; type: functional
Staphylococcus aureus [30] = experiment: Inhibition of fatty acid biosynthesis in Staphylococcus aureus assessed as incorporation of [1-14C]acetate by scintillation counting analysis; type: functional, organism-based
Staphylococcus aureus [31] = experiment: Inhibition of protein biosynthesis in Staphylococcus aureus assessed as incorporation of [14C]leucine by scintillation counting analysis; type: functional, organism-based
Bacillus cereus [32] = experiment: Antimicrobial activity against Bacillus cereus by liquid microdilution assay; type: functional
Staphylococcus aureus [33] = experiment: Antimicrobial activity against Staphylococcus aureus by liquid microdilution assay; type: functional
Candida albicans [34] = experiment: Antimicrobial activity against Candida albicans by liquid microdilution assay; type: functional
Citrobacter freundii [35] = experiment: Microbicidal activity against Citrobacter freundii by liquid microdilution assay; type: functional
Bacillus cereus [36] = experiment: Microbicidal activity against Bacillus cereus by liquid microdilution assay; type: functional
Staphylococcus aureus [37] = experiment: Microbicidal activity against Staphylococcus aureus by liquid microdilution assay; type: functional
Candida albicans [38] = experiment: Microbicidal activity against Candida albicans by liquid microdilution assay; type: functional
[39] = Antifungal activity against Fusarium roseum; type: functional
[40] = Antifungal activity against Fusarium lateritium f. sp. mori; type: functional
[41] = Antifungal activity against Fusarium solani f. sp. mori; type: functional
[42] = Antifungal activity against Diaporthe nomurai; type: functional
[43] = Antifungal activity against Stigmina mori; type: functional
Rosellinia necatrix = experiment: Antifungal activity against Rosellinia necatrix; type: functional
[44] = Antifungal activity against Cochliobolus miyabeanus; type: functional; details: Bipolaris oryzae
[45] = Antioxidant activity in liver (unknown origin) assessed as inhibition of Fe2+/cysteine system-induced lipid peroxidation; type: functional, tissue-based; details: dose or concentration not given here
Morus alba = experiment: Antioxidant activity in mulberry leaves assessed as UV-stress-induced free radical scavenging activity measured as inhibition of blue formazan at 100 uM; type: functional
[46] = Inhibition of alpha-glucosidase (unknown origin); design: species or system Homo sapiens
RAW264.7 [47] = experiment: Antiinflammatory activity against mouse RAW264.7 cells assessed as reduction of IFNgamma-induced NO production; type: functional, cell-based
RAW264.7 [48] = experiment: Antiinflammatory activity against mouse RAW264.7 cells assessed as reduction of LPS-induced NO production; type: functional, cell-based

Oc1cc(O)cc(-c2cc3ccc(O)cc3o2)c1 [MORACIN M]
MIC (Staphylococcus aureus [1]): 12.5 µg/mL (≈ 51.6 µM)
MIC (Staphylococcus aureus [2]): 25 µg/mL (≈ 103 µM)
MIC (Micrococcus luteus): 25 µg/mL (≈ 103 µM)
MIC (Bacillus subtilis): 100 µg/mL (≈ 413 µM)
MIC (Escherichia coli [3]): > 100 µg/mL
MIC (Klebsiella pneumoniae [4]): > 100 µg/mL
MIC (Pseudomonas aeruginosa [5]): > 100 µg/mL
MIC (Citrobacter freundii [6]): 312 µg/mL (≈ 1290 µM)
MIC (Escherichia coli [7]): 78 µg/mL (≈ 322 µM)
MIC (Shigella dysenteriae [8]): 78 µg/mL (≈ 322 µM)
MIC (Pseudomonas aeruginosa [9]): 156 µg/mL (≈ 644 µM)
MIC (Klebsiella pneumoniae [10]): 312 µg/mL (≈ 1290 µM)
MIC (Salmonella typhi [11]): 78 µg/mL (≈ 322 µM)
MIC (Enterococcus faecalis [12]): 78 µg/mL (≈ 322 µM)
MIC (Microsporum audouinii [13]): 78 µg/mL (≈ 322 µM)
MBC (Escherichia coli [14]): 625 µg/mL (≈ 2580 µM)
MBC (Shigella dysenteriae [15]): 156 µg/mL (≈ 644 µM)
MBC (Pseudomonas aeruginosa [16]): 625 µg/mL (≈ 2580 µM)
MBC (Klebsiella pneumoniae [17]): 625 µg/mL (≈ 2580 µM)
MBC (Salmonella typhi [18]): 156 µg/mL (≈ 644 µM)
MBC (Enterococcus faecalis [19]): 156 µg/mL (≈ 644 µM)
MFC (Microsporum audouinii [20]): 312 µg/mL (≈ 1290 µM)
IC50 [21]: Not Active
IC50 [22]: Not Active
IC50 [23]: > 30 µM
Activity (Mus musculus [24]): 20.08 mmol/L
Activity (Mus musculus [25]): 18.52 mmol/L
inhibition (INH) [26]: 54%

CC(C)=CCc1c(O)cc(-c2cc3ccc(O)cc3o2)cc1O [MORACIN C]
MIC (Staphylococcus aureus [1]): 6.25 µg/mL (≈ 20.1 µM)
MIC (Staphylococcus aureus [2]): 12.5 µg/mL (≈ 40.3 µM)
MIC (Micrococcus luteus): 12.5 µg/mL (≈ 40.3 µM)
MIC (Bacillus subtilis): 3.13 µg/mL (≈ 10.1 µM)
MIC (Escherichia coli [3]): > 100 µg/mL
MIC (Klebsiella pneumoniae [4]): > 100 µg/mL
MIC (Pseudomonas aeruginosa [5]): > 100 µg/mL
IC50 [27]: 83.8 µM
MIC (Staphylococcus aureus [28]): 32 µg/mL (≈ 103 µM)
MIC (Staphylococcus aureus [29]): 32 µg/mL (≈ 103 µM)
IC50 (Staphylococcus aureus [30]): 74.8 µM
IC50 (Staphylococcus aureus [31]): 188 µM
MIC (Citrobacter freundii [6]): 156 µg/mL (≈ 503 µM)
MIC (Escherichia coli [7]): 39 µg/mL (≈ 126 µM)
MIC (Shigella dysenteriae [8]): 5 µg/mL (≈ 16.1 µM)
MIC (Pseudomonas aeruginosa [9]): 10 µg/mL (≈ 32.2 µM)
MIC (Klebsiella pneumoniae [10]): 312 µg/mL (≈ 1010 µM)
MIC (Salmonella typhi [11]): 10 µg/mL (≈ 32.2 µM)
MIC (Bacillus cereus [32]): 78 µg/mL (≈ 251 µM)
MIC (Staphylococcus aureus [33]): 78 µg/mL (≈ 251 µM)
MIC (Enterococcus faecalis [12]): 39 µg/mL (≈ 126 µM)
MIC (Candida albicans [34]): 68 µg/mL (≈ 219 µM)
MIC (Microsporum audouinii [13]): 78 µg/mL (≈ 251 µM)
MBC (Citrobacter freundii [35]): 625 µg/mL (≈ 2010 µM)
MBC (Escherichia coli [14]): 78 µg/mL (≈ 251 µM)
MBC (Shigella dysenteriae [15]): 39 µg/mL (≈ 126 µM)
MBC (Pseudomonas aeruginosa [16]): 39 µg/mL (≈ 126 µM)
MBC (Klebsiella pneumoniae [17]): 625 µg/mL (≈ 2010 µM)
MBC (Salmonella typhi [18]): 39 µg/mL (≈ 126 µM)
MBC (Bacillus cereus [36]): 156 µg/mL (≈ 503 µM)
MBC (Staphylococcus aureus [37]): 156 µg/mL (≈ 503 µM)
MBC (Enterococcus faecalis [19]): 78 µg/mL (≈ 251 µM)
MFC (Candida albicans [38]): 156 µg/mL (≈ 503 µM)
MFC (Microsporum audouinii [20]): 312 µg/mL (≈ 1010 µM)
MIC [39]: 3.5 µg/mL (≈ 11.3 µM)
MIC [40]: 7 µg/mL (≈ 22.6 µM)
MIC [41]: 224 µg/mL (≈ 722 µM)
MIC [42]: 14 µg/mL (≈ 45.1 µM)
MIC [43]: 112 µg/mL (≈ 361 µM)
MIC (Rosellinia necatrix): 3.5 µg/mL (≈ 11.3 µM)
MIC [44]: 28 µg/mL (≈ 90.2 µM)
inhibition [45]: 73%
inhibition (Morus alba): 64%
IC50 [46]: 4.04 µM
IC50 (RAW264.7 [47]): 8 µM
IC50 (RAW264.7 [48]): 8 µM
inhibition (INH) [26]: 100%
